Laboratory results taken from article PMC10893631, “Receptor-based pharmacophore modeling, molecular docking, synthesis and biological evaluation of novel VEGFR-2, FGFR-1, and BRAF multi-kinase inhibitors” (BMC Chemistry, 2024).

Columns and labels:
Experiment in all cases: NCI SRB growth inhibition (single dose 10 µM / five-dose)
Type in all cases: cell-based, human
A549/ATCC = conditions: Homo sapiens; for inhibition at 10 µM: A549/ATCC (Non-small cell lung cancer), read-out: GI%; for GI50: A549/ATCC, Non-small cell lung cancer, five-dose
Method in brief: (§1)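 Three dose–response parameters were calculated per compound, among them TGI, defined at Ti = Tz. Percentage growth came from SRB absorbance normalised to time-zero and control wells, with negative values indicating cell kill below Tz.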

UACC-257 = conditions: Homo sapiens; for inhibition at 10 µM: UACC-257 (Melanoma), read-out: GI%; for GI50: UACC-257, Melanoma, five-dose
Method in brief: as §1

TK-10 = conditions: Homo sapiens; for inhibition at 10 µM: TK-10 (Renal cancer), read-out: GI%; for GI50: TK-10, Renal cancer, five-dose
Method in brief: as §1

MCF7 = conditions: Homo sapiens; for inhibition at 10 µM: MCF7 (Breast cancer), read-out: GI%; for GI50: MCF7, Breast cancer, five-dose
Method in brief: as §1

NCI-H23 = conditions: Homo sapiens; for inhibition at 10 µM: NCI-H23 (Non-small cell lung cancer), read-out: GI%; for GI50: NCI-H23, Non-small cell lung cancer, five-dose
Method in brief: as §1

CCRF-CEM = conditions: Homo sapiens; for inhibition at 10 µM: CCRF-CEM (Leukemia), read-out: GI%; for GI50: CCRF-CEM, Leukemia, five-dose
Method in brief: as §1

A498 = conditions: Homo sapiens; for inhibition at 10 µM: A498 (Renal cancer), read-out: GI%; for GI50: A498, Renal cancer, five-dose
Method in brief: as §1

T-47D = conditions: Homo sapiens, T47D; for inhibition at 10 µM: T-47D (Breast cancer), read-out: GI%; for GI50: T-47D, Breast cancer, five-dose
Method in brief: as §1

NCI-H460 = conditions: Homo sapiens; for inhibition at 10 µM: NCI-H460 (Non-small cell lung cancer), read-out: GI%; for GI50: NCI-H460, Non-small cell lung cancer, five-dose
Method in brief: as §1

EKVX = conditions: Homo sapiens; for inhibition at 10 µM: EKVX (Non-small cell lung cancer), read-out: GI%; for GI50: EKVX, Non-small cell lung cancer, five-dose
Method in brief: as §1

RPMI-8226 = conditions: Homo sapiens; for inhibition at 10 µM: RPMI-8226 (Leukemia), read-out: GI%; for GI50: RPMI-8226, Leukemia, five-dose
Method in brief: as §1

HCC-2998 = conditions: Homo sapiens; for inhibition at 10 µM: HCC-2998 (Colon cancer), read-out: GI%; for GI50: HCC-2998, Colon cancer, five-dose
Method in brief: as §1

SF-295 = conditions: Homo sapiens; for inhibition at 10 µM: SF-295 (CNS cancer), read-out: GI%; for GI50: SF-295, CNS cancer, five-dose
Method in brief: as §1

K-562 = conditions: Homo sapiens, K562; for inhibition at 10 µM: K-562 (Leukemia), read-out: GI%; for GI50: K-562, Leukemia, five-dose
Method in brief: as §1

HS 578 T = conditions: Homo sapiens; for inhibition at 10 µM: HS 578 T (Breast cancer), read-out: GI%; for GI50: HS 578 T, Breast cancer, five-dose
Method in brief: as §1

IGROV1 = conditions: Homo sapiens, IGROV-1; for inhibition at 10 µM: IGROV1 (Ovarian cancer), read-out: GI%; for GI50: IGROV1, Ovarian cancer, five-dose
Method in brief: as §1

SK-MEL-28 = conditions: Homo sapiens; for inhibition at 10 µM: SK-MEL-28 (Melanoma), read-out: GI%; for GI50: SK-MEL-28, Melanoma, five-dose
Method in brief: as §1

PC-3 = conditions: Homo sapiens; for inhibition at 10 µM: PC-3 (Prostate cancer), read-out: GI%; for GI50: PC-3, Prostate cancer, five-dose
Method in brief: as §1

MALME-3 M = conditions: Homo sapiens; for inhibition at 10 µM: MALME-3 M (Melanoma), read-out: GI%; for GI50: MALME-3 M, Melanoma, five-dose
Method in brief: as §1

UACC-62 = conditions: Homo sapiens; for inhibition at 10 µM: UACC-62 (Melanoma), read-out: GI%; for GI50: UACC-62, Melanoma, five-dose
Method in brief: as §1

OVCAR-3 = conditions: Homo sapiens; for inhibition at 10 µM: OVCAR-3 (Ovarian cancer), read-out: GI%; for GI50: OVCAR-3, Ovarian cancer, five-dose
Method in brief: as §1

COLO 205 = conditions: Homo sapiens; for inhibition at 10 µM: COLO 205 (Colon cancer), read-out: GI%; for GI50: COLO 205, Colon cancer, five-dose
Method in brief: as §1

OVCAR-8 = conditions: Homo sapiens; for inhibition at 10 µM: OVCAR-8 (Ovarian cancer), read-out: GI%; for GI50: OVCAR-8, Ovarian cancer, five-dose
Method in brief: as §1

SW-620 = conditions: Homo sapiens; for inhibition at 10 µM: SW-620 (Colon cancer), read-out: GI%; for GI50: SW-620, Colon cancer, five-dose
Method in brief: as §1

OVCAR-5 = conditions: Homo sapiens; for inhibition at 10 µM: OVCAR-5 (Ovarian cancer), read-out: GI%; for GI50: OVCAR-5, Ovarian cancer, five-dose
Method in brief: as §1

SK-MEL-2 = conditions: Homo sapiens; for inhibition at 10 µM: SK-MEL-2 (Melanoma), read-out: GI%
Method in brief: as §1

SMILES: COc1cccc(C=NNC(=O)c2ccc3[nH]c(-c4ccc(Cl)cc4)nc3c2)c1O [8r, 2-(4-Chlorophenyl)-N'-(2-hydroxy-3-methoxybenzylidene)-1H-benzo[d]imidazole-5-carbohydrazide]
- inhibition at 10 µM (A549/ATCC): > 100%
- GI50 (A549/ATCC): 3680 nM
- inhibition at 10 µM (UACC-257): > 100%
- GI50 (UACC-257): 2350 nM
- inhibition at 10 µM (TK-10): > 100%
- GI50 (TK-10): 6460 nM
- inhibition at 10 µM (MCF7): > 100%
- GI50 (MCF7): 660 nM
- inhibition at 10 µM (NCI-H23): > 100%
- GI50 (NCI-H23): 1150 nM
- inhibition at 10 µM (CCRF-CEM): > 100%
- GI50 (CCRF-CEM): 430 nM
- inhibition at 10 µM (A498): > 100%
- GI50 (A498): 12100 nM
- inhibition at 10 µM (T-47D): > 100%
- GI50 (T-47D): 600 nM
- inhibition at 10 µM (NCI-H460): > 100%
- GI50 (NCI-H460): 1350 nM
- inhibition at 10 µM (EKVX): > 100%
- GI50 (EKVX): 4560 nM
- inhibition at 10 µM (RPMI-8226): > 100%
- GI50 (RPMI-8226): 2220 nM
- inhibition at 10 µM (HCC-2998): > 100%
- GI50 (HCC-2998): 1480 nM
- inhibition at 10 µM (SF-295): > 100%
- GI50 (SF-295): 2200 nM
- inhibition at 10 µM (K-562): > 100%
- GI50 (K-562): 490 nM
- inhibition at 10 µM (HS 578 T): > 100%
- GI50 (HS 578 T): 700 nM
- inhibition at 10 µM (IGROV1): > 100%
- GI50 (IGROV1): 1250 nM
- inhibition at 10 µM (SK-MEL-28): > 100%
- GI50 (SK-MEL-28): 1620 nM
- inhibition at 10 µM (PC-3): > 100%
- GI50 (PC-3): 1620 nM
- inhibition at 10 µM (MALME-3 M): > 100%
- GI50 (MALME-3 M): 1360 nM
- inhibition at 10 µM (UACC-62): > 100%
- GI50 (UACC-62): 1230 nM
- inhibition at 10 µM (OVCAR-3): > 100%
- GI50 (OVCAR-3): 560 nM
- inhibition at 10 µM (COLO 205): > 100%
- GI50 (COLO 205): 2330 nM
- inhibition at 10 µM (OVCAR-8): > 100%
- GI50 (OVCAR-8): 1580 nM
- inhibition at 10 µM (SW-620): > 100%
- GI50 (SW-620): 1320 nM
- inhibition at 10 µM (OVCAR-5): > 100%
- GI50 (OVCAR-5): 2170 nM
- inhibition at 10 µM (SK-MEL-2): > 100%

SMILES: COc1ccc(OC)c(C=NNC(=O)c2ccc3[nH]c(-c4ccc(Cl)cc4)nc3c2)c1 [8t, 2-(4-Chlorophenyl)-N'-(2,5-dimethoxybenzylidene)-1H-benzo[d]imidazole-5-carbohydrazide]
- inhibition at 10 µM (A549/ATCC): 8.76%
- inhibition at 10 µM (UACC-257): < 5%
- inhibition at 10 µM (TK-10): 10.9%
- inhibition at 10 µM (MCF7): 48.1%
- inhibition at 10 µM (NCI-H23): 33.9%
- inhibition at 10 µM (CCRF-CEM): 56.1%
- inhibition at 10 µM (A498): 56.2%
- inhibition at 10 µM (T-47D): 61.8%
- inhibition at 10 µM (NCI-H460): 17.5%
- inhibition at 10 µM (EKVX): 42.5%
- inhibition at 10 µM (RPMI-8226): 62.2%
- inhibition at 10 µM (HCC-2998): 14.6%
- inhibition at 10 µM (SF-295): 51.9%
- inhibition at 10 µM (K-562): 52.9%
- inhibition at 10 µM (HS 578 T): 48.8%
- inhibition at 10 µM (IGROV1): 7.82%
- inhibition at 10 µM (SK-MEL-28): 14.6%
- inhibition at 10 µM (PC-3): 58.5%
- inhibition at 10 µM (MALME-3 M): 18.4%
- inhibition at 10 µM (UACC-62): 24.3%
- inhibition at 10 µM (OVCAR-3): 10.8%
- inhibition at 10 µM (COLO 205): 18.3%
- inhibition at 10 µM (OVCAR-8): 17.2%
- inhibition at 10 µM (SW-620): 7.98%
- inhibition at 10 µM (OVCAR-5): < 5%
- inhibition at 10 µM (SK-MEL-2): < 5%

SMILES: COc1cc(C=NNC(=O)c2ccc3[nH]c(-c4ccc(Cl)cc4)nc3c2)cc(OC)c1OC [8u, 2-(4-Chlorophenyl)-N'-(3,4,5-trimethoxybenzylidene)-1H-benzo[d]imidazole-5-carbohydrazide]
- inhibition at 10 µM (A549/ATCC): 70.8%
- GI50 (A549/ATCC): 7550 nM
- inhibition at 10 µM (UACC-257): > 100%
- GI50 (UACC-257): 4670 nM
- inhibition at 10 µM (TK-10): 62.6%
- GI50 (TK-10): 28800 nM
- inhibition at 10 µM (MCF7): > 100%
- GI50 (MCF7): 660 nM
- inhibition at 10 µM (NCI-H23): > 100%
- GI50 (NCI-H23): 4720 nM
- inhibition at 10 µM (CCRF-CEM): > 100%
- GI50 (CCRF-CEM): 6270 nM
- inhibition at 10 µM (A498): > 100%
- GI50 (A498): 26400 nM
- inhibition at 10 µM (T-47D): > 100%
- GI50 (T-47D): 3480 nM
- inhibition at 10 µM (NCI-H460): > 100%
- GI50 (NCI-H460): 3190 nM
- inhibition at 10 µM (EKVX): 90.8%
- GI50 (EKVX): 14800 nM
- inhibition at 10 µM (RPMI-8226): > 100%
- GI50 (RPMI-8226): 3210 nM
- inhibition at 10 µM (HCC-2998): > 100%
- GI50 (HCC-2998): 11100 nM
- inhibition at 10 µM (SF-295): > 100%
- GI50 (SF-295): 4180 nM
- inhibition at 10 µM (K-562): > 100%
- GI50 (K-562): 1960 nM
- inhibition at 10 µM (HS 578 T): > 100%
- GI50 (HS 578 T): 2580 nM
- inhibition at 10 µM (IGROV1): 92.4%
- GI50 (IGROV1): 11000 nM
- inhibition at 10 µM (SK-MEL-28): > 100%
- GI50 (SK-MEL-28): 1830 nM
- inhibition at 10 µM (PC-3): > 100%
- GI50 (PC-3): 5730 nM
- inhibition at 10 µM (MALME-3 M): > 100%
- GI50 (MALME-3 M): 1120 nM
- inhibition at 10 µM (UACC-62): > 100%
- GI50 (UACC-62): 1240 nM
- inhibition at 10 µM (OVCAR-3): > 100%
- GI50 (OVCAR-3): 2280 nM
- inhibition at 10 µM (COLO 205): > 100%
- GI50 (COLO 205): 2840 nM
- inhibition at 10 µM (OVCAR-8): > 100%
- GI50 (OVCAR-8): 3870 nM
- inhibition at 10 µM (SW-620): > 100%
- GI50 (SW-620): 4400 nM
- inhibition at 10 µM (OVCAR-5): 37.4%
- GI50 (OVCAR-5): 15600 nM
- inhibition at 10 µM (SK-MEL-2): > 100%
- GI50 (SK-MEL-2; SK-MEL-2, Melanoma, five-dose): 11000 nM
